# Assays:
# Assay in all cases: relative viability (nuclei count vs DMSO), 5 days (fraction); higher = more cells survive
# H3255 = system: H3255
# Method in brief: (§1)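 The day after seeding in 1536-well plates, lung cancer cell lines were treated by pin tool with a single drug, or with a fixed anchor-drug dose together with five library-drug doses (not always all listed) in √10 steps. After 5 days, a combined fix-and-stain solution (final 0.05% Triton X-100, 1% formaldehyde, 1 ug/ml Hoechst) was added. Nuclei counted on 4× images gave relative viability as treated counts over vehicle counts, reported as the median of duplicate plates.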
# HOP-62 = system: HOP-62
# Method in brief: as §1
# NCI-H647 = system: NCI-H647
# Method in brief: as §1
# LXF-289 = system: LXF-289
# Method in brief: as §1
# NCI-H2009 = system: NCI-H2009
# Method in brief: as §1
# NCI-H522 = system: NCI-H522
# Method in brief: as §1
# NCI-H2170 = system: NCI-H2170
# Method in brief: as §1
# NCI-H2087 = system: NCI-H2087
# Method in brief: as §1
# SW 900 = system: SW 900
# Method in brief: as §1
# NCI-H1755 = system: NCI-H1755
# Method in brief: as §1
# ABC-1 = system: ABC-1
# Method in brief: as §1
# NCI-H596 = system: NCI-H596
# Method in brief: as §1
# NCI-H322M = system: NCI-H322M
# Method in brief: as §1
# NCI-H1734 = system: NCI-H1734
# Method in brief: as §1
# EMC-BAC-2 = system: EMC-BAC-2
# Method in brief: as §1
# NCI-H441 = system: NCI-H441
# Method in brief: as §1
# 201T = system: 201T
# Method in brief: as §1
# NCI-H2126 = system: NCI-H2126
# Method in brief: as §1
# NCI-H1651 = system: NCI-H1651
# Method in brief: as §1
# LK-2 = system: LK-2
# Method in brief: as §1
compound,measurement,setting,value
COCC1(CO)C(=O)C2CCN1CC2 (stereo unspecified) [PRIMA-1MET] + Nc1ncn([C@H]2C[C@H](O)[C@@H](CO)O2)c(=O)n1 [Decitabine] (partner 2 µM),relative viability,H3255; first compound 0.2 µM,0.553
same,relative viability,H3255; first compound 0.6325 µM,0.54
same,relative viability,H3255; first compound 2 µM,0.524
same,relative viability,H3255; first compound 6.325 µM,0.695
same,relative viability,H3255; first compound 20 µM,0.522
same,relative viability,HOP-62; first compound 0.2 µM,0.22
same,relative viability,HOP-62; first compound 0.6325 µM,0.217
same,relative viability,HOP-62; first compound 2 µM,0.207
same,relative viability,HOP-62; first compound 6.325 µM,0.203
same,relative viability,HOP-62; first compound 20 µM,0.169
same,relative viability,NCI-H647; first compound 0.2 µM,0.403
same,relative viability,NCI-H647; first compound 0.6325 µM,0.236
same,relative viability,NCI-H647; first compound 2 µM,0.353
same,relative viability,NCI-H647; first compound 6.325 µM,0.333
same,relative viability,NCI-H647; first compound 20 µM,0.39
same,relative viability,LXF-289; first compound 0.2 µM,0.383
same,relative viability,LXF-289; first compound 0.6325 µM,0.306
same,relative viability,LXF-289; first compound 2 µM,0.349
same,relative viability,LXF-289; first compound 6.325 µM,0.373
same,relative viability,LXF-289; first compound 20 µM,0.372
same,relative viability,NCI-H2009; first compound 0.2 µM,0.383
same,relative viability,NCI-H2009; first compound 0.6325 µM,0.389
same,relative viability,NCI-H2009; first compound 2 µM,0.341
same,relative viability,NCI-H2009; first compound 6.325 µM,0.345
same,relative viability,NCI-H2009; first compound 20 µM,0.153
same,relative viability,NCI-H522; first compound 0.2 µM,0.648
same,relative viability,NCI-H522; first compound 0.6325 µM,0.592
same,relative viability,NCI-H522; first compound 2 µM,0.573
same,relative viability,NCI-H522; first compound 6.325 µM,0.672
same,relative viability,NCI-H522; first compound 20 µM,0.178
same,relative viability,NCI-H2170; first compound 0.2 µM,0.42
same,relative viability,NCI-H2170; first compound 0.6325 µM,0.324
same,relative viability,NCI-H2170; first compound 2 µM,0.43
same,relative viability,NCI-H2170; first compound 6.325 µM,0.457
same,relative viability,NCI-H2170; first compound 20 µM,0.457
same,relative viability,NCI-H2087; first compound 0.6325 µM,0.226
same,relative viability,NCI-H2087; first compound 2 µM,0.315
same,relative viability,NCI-H2087; first compound 6.325 µM,0.251
same,relative viability,NCI-H2087; first compound 20 µM,0.174
same,relative viability,SW 900; first compound 0.2 µM,0.402
same,relative viability,SW 900; first compound 0.6325 µM,0.386
same,relative viability,SW 900; first compound 6.325 µM,0.425
same,relative viability,SW 900; first compound 20 µM,0.0976
same,relative viability,NCI-H1755; first compound 0.2 µM,0.785
same,relative viability,NCI-H1755; first compound 0.6325 µM,0.583
same,relative viability,NCI-H1755; first compound 2 µM,0.72
same,relative viability,NCI-H1755; first compound 6.325 µM,0.723
same,relative viability,NCI-H1755; first compound 20 µM,0.772
same,relative viability,ABC-1; first compound 0.2 µM,1.07
same,relative viability,ABC-1; first compound 2 µM,0.983
same,relative viability,ABC-1; first compound 6.325 µM,1.36
same,relative viability,ABC-1; first compound 20 µM,0.552
same,relative viability,NCI-H596; first compound 0.2 µM,1.09
same,relative viability,NCI-H596; first compound 0.6325 µM,0.855
same,relative viability,NCI-H596; first compound 2 µM,0.989
same,relative viability,NCI-H596; first compound 6.325 µM,1.07
same,relative viability,NCI-H596; first compound 20 µM,0.655
same,relative viability,NCI-H322M; first compound 0.2 µM,0.725
same,relative viability,NCI-H322M; first compound 0.6325 µM,0.696
same,relative viability,NCI-H322M; first compound 6.325 µM,0.714
same,relative viability,NCI-H322M; first compound 20 µM,0.6
same,relative viability,NCI-H1734; first compound 0.2 µM,0.481
same,relative viability,NCI-H1734; first compound 0.6325 µM,0.289
same,relative viability,NCI-H1734; first compound 2 µM,0.456
same,relative viability,NCI-H1734; first compound 6.325 µM,0.474
same,relative viability,NCI-H1734; first compound 20 µM,0.0575
same,relative viability,EMC-BAC-2; first compound 0.2 µM,1
same,relative viability,EMC-BAC-2; first compound 0.6325 µM,0.818
same,relative viability,EMC-BAC-2; first compound 2 µM,0.967
same,relative viability,EMC-BAC-2; first compound 6.325 µM,0.938
same,relative viability,EMC-BAC-2; first compound 20 µM,0.928
same,relative viability,NCI-H441; first compound 0.2 µM,0.232
same,relative viability,NCI-H441; first compound 0.6325 µM,0.21
same,relative viability,NCI-H441; first compound 2 µM,0.22
same,relative viability,NCI-H441; first compound 6.325 µM,0.23
same,relative viability,NCI-H441; first compound 20 µM,0.169
same,relative viability,201T; first compound 0.2 µM,0.921
same,relative viability,201T; first compound 0.6325 µM,0.607
same,relative viability,201T; first compound 2 µM,0.762
same,relative viability,201T; first compound 6.325 µM,0.87
same,relative viability,201T; first compound 20 µM,0.896
same,relative viability,NCI-H2126; first compound 0.2 µM,0.59
same,relative viability,NCI-H2126; first compound 0.6325 µM,0.579
same,relative viability,NCI-H2126; first compound 2 µM,0.544
same,relative viability,NCI-H2126; first compound 6.325 µM,0.631
same,relative viability,NCI-H2126; first compound 20 µM,0.619
same,relative viability,NCI-H1651; first compound 0.2 µM,0.616
same,relative viability,NCI-H1651; first compound 0.6325 µM,0.178
same,relative viability,NCI-H1651; first compound 2 µM,0.585
same,relative viability,NCI-H1651; first compound 6.325 µM,0.666
same,relative viability,NCI-H1651; first compound 20 µM,0.6
same,relative viability,LK-2; first compound 0.2 µM,0.262
same,relative viability,LK-2; first compound 0.6325 µM,0.158
same,relative viability,LK-2; first compound 2 µM,0.247
same,relative viability,LK-2; first compound 6.325 µM,0.182
same,relative viability,LK-2; first compound 20 µM,0.0846

# From the supplement of paper PMC10307832
